Experimental data as given in patent US6881719B2, “β-turn peptidomimetic cyclic compounds” (McGill University, priority 2000, dated 2005).
Values joined by “and” are separate entries in the source; they are usually repeats but may differ in a detail not shown here. Equal entries are not always repeated. No end group written: not given here.

Legend:
[1] = target: T1, NIH3T3 fibroblasts expressing TrkA (Homo sapiens, UniProt P04629); assay: Cell survival (MTT), NIH-TrkA; assay type: cell-based; conditions: 72 hours;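 further: 100% equals survival with optimal NGF at 1 nM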
T1 construct: expressed in transfected cells; host or cells: NIH3T3 fibroblasts
T1 sequence (P04629 33-796): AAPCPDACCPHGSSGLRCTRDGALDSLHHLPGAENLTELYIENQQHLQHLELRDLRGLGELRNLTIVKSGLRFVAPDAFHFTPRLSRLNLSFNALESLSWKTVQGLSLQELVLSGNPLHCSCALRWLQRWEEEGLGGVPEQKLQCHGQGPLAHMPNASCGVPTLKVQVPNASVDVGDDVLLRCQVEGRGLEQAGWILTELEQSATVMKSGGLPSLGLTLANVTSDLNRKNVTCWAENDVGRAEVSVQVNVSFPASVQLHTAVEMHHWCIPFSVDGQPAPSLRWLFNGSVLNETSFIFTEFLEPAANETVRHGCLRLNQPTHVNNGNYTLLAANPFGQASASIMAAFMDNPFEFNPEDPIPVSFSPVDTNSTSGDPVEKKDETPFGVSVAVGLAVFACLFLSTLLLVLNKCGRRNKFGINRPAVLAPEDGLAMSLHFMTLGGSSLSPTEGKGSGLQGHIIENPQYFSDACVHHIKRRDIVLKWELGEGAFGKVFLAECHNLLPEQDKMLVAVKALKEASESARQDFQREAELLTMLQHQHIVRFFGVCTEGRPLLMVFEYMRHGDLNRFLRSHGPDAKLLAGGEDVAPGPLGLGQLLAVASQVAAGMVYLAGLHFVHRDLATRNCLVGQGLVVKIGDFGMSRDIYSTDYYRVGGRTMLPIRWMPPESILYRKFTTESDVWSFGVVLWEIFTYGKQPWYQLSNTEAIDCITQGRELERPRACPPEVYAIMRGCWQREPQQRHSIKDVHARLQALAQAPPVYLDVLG
Excerpt: The 4-3.6 cells are B104 cells stably transfected with human trkA cDNA, and express equal levels of p75 and TrkA (TrkA+ p75+). For screening agents that activate or antagonize TrkC receptors, NIH3T3 fibroblasts were stably transfected with human TrkC cDNA. […] For screening agents that activate or antagonize TrkA receptors, NIH3T3 fibroblasts were stably transfected with human TrkA cDNA.
(§1) Cell lines: 5,000 cells/well in protein-free media (PFHM-II, GIBCO, Toronto) containing 0.2% bovine serum albumin (BSA) (Crystalline fraction V, Sigma, St. Louis, Mo.) were seeded in 96 well plates (Falcon, Mississauga, Ontario). The cultures were untreated, or treated with the indicated test or control ligands. Cell viability was quantitated using the MTT assay after 56-72 hours of culture. […] The OD of untreated cells were subtracted.

[2] = target: T2, NIH3T3 fibroblasts expressing TrkC (Homo sapiens, UniProt Q16288); assay: Cell survival (MTT), NIH-TrkC; assay type: cell-based; conditions: 72 hours
T2 construct: expressed in transfected cells; host or cells: NIH3T3 fibroblasts
T2 sequence (Q16288 32-839): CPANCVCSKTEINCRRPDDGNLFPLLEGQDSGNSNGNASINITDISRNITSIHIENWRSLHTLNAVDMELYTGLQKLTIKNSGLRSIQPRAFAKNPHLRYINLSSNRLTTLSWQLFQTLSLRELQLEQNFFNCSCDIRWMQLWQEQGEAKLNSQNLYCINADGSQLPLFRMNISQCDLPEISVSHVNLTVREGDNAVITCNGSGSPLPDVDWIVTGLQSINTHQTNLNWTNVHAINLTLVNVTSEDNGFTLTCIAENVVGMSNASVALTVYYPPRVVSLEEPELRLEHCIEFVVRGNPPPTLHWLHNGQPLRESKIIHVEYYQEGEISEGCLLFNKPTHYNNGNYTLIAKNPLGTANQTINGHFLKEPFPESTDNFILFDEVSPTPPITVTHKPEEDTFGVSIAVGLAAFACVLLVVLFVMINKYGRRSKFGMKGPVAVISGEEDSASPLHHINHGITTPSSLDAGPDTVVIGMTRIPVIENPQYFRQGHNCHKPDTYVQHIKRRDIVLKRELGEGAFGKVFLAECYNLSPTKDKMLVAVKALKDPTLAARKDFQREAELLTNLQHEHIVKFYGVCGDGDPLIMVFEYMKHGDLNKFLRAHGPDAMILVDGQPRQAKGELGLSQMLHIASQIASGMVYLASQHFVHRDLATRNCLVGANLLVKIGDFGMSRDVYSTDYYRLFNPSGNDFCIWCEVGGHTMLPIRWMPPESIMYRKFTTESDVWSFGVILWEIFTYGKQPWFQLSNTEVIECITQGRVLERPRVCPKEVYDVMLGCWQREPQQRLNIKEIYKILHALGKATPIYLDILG
Excerpt: (§2) The 4-3.6 cells are B104 cells stably transfected with human trkA cDNA, and express equal levels of p75 and TrkA (TrkA+ p75+). For screening agents that activate or antagonize TrkC receptors, NIH3T3 fibroblasts were stably transfected with human TrkC cDNA. These cells respond to the ligand NT-3. For screening agents that activate or antagonize TrkA receptors, NIH3T3 fibroblasts were stably transfected with human TrkA cDNA. These cells respond to the ligand NGF.
as §1, with “subtracted. The higher optical density of untreated primary cultures is likely due to cellular heterogeneity and to endogenous production of limiting amounts of growth factors.” for “subtracted.”

[3] = test system: wild type NIH3T3 fibroblasts; assay: Cell survival (MTT), NIH wt; assay type: cell-based; conditions: 72 hours
Excerpt: as §2
as §1, with “subtracted. The higher optical density of untreated primary cultures is likely due to cellular heterogeneity and to endogenous production of limiting amounts of growth factors.” for “subtracted.”

[4] = target: human TrkA expressed on transfected cells (4-3.6 cells; NIH3T3-TrkA cells) (human) (UniProt P04629); assay: FACScan, 4-3.6 cells (p75+ TrkA+), avidin-FITC
human TrkA expressed on transfected cells (4-3.6 cells; NIH3T3-TrkA cells) (human), sequence (P04629 33-796): as the sequence (P04629 33-796) above

[5] = target: TrkA on primary rat embryonic neurons (DRG and septal cultures) (rat) (UniProt P35739); assay: cell-based or functional assay
TrkA on primary rat embryonic neurons (DRG and septal cultures) (rat), sequence (P35739 33-799): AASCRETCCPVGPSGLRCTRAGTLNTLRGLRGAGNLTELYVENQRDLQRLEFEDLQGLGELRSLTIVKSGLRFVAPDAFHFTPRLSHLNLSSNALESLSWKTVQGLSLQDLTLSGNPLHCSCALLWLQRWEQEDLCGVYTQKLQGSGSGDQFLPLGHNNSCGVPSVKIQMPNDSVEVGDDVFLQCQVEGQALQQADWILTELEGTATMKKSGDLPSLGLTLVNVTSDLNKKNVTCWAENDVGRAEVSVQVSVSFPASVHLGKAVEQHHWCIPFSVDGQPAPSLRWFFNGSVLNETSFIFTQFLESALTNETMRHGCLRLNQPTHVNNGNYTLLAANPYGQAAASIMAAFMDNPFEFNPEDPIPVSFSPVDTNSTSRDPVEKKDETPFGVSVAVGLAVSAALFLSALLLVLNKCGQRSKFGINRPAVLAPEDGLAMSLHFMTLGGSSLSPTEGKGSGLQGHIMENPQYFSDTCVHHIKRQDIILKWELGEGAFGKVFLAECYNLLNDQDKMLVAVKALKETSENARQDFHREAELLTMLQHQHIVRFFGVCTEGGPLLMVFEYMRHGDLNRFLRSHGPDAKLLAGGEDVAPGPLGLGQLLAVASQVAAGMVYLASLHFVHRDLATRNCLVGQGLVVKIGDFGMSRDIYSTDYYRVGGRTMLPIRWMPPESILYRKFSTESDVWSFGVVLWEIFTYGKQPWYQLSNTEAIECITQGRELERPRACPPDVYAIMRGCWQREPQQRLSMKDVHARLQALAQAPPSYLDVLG

[6] = target: human TrkC expressed on transfected NIH3T3 fibroblasts (human) (UniProt Q16288); assay: cell-based or functional assay
human TrkC expressed on transfected NIH3T3 fibroblasts (human), sequence (Q16288 32-839): as the sequence (Q16288 32-839) above

[7] = target: TrkA on primary rat embryonic neurons (DRG and septal cultures) (rat, UniProt P35739 33-799); assay: cell-based or functional assay
TrkA on primary rat embryonic neurons (DRG and septal cultures), sequence (P35739 33-799): as the sequence (P35739 33-799) above

nerve growth factor (NGF) (ligand), sequence (P01138 122-241): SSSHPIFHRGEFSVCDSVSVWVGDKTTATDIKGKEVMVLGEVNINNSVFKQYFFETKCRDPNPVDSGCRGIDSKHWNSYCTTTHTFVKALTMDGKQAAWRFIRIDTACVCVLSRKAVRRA

CCC(C)[C@@H]1NC(=O)C(CC(=O)O)NC(=O)c2cc([N+](=O)[O-])cc(I)c2OCCC(C(N)=O)NC1=O (stereo partly shown) [P23]
NIH-TrkA % Protection ([1]; agent 10 μM + 10 pM NGF): 52 ± 3%
NIH-TrkA % Protection ([1]; agent 10 μM + 10 pM NT-3): 21 ± 3%
NIH-TrkA % Protection ([1]; agent 10 μM alone): 15 ± 2%
NIH-TrkC % Protection ([2]; agent 10 μM + 10 pM NGF): 11 ± 5%
NIH-TrkC % Protection ([2]; agent 10 μM + 10 pM NT-3): 51 ± 7%
NIH-TrkC % Protection ([2]; agent 10 μM alone): 8 ± 2%
NIH wt % Protection ([3]; agent 10 μM + 10 pM NGF): 1 ± 3%
NIH wt % Protection ([3]; agent 10 μM + 10 pM NT-3): 1 ± 3%
NIH wt % Protection ([3]; agent 10 μM alone): 0 ± 3%

CC(O)[C@@H]1NC(=O)[C@H](CCCCN)NC(=O)c2cc([N+](=O)[O-])cc(I)c2OCCC(C(N)=O)NC1=O (stereo partly shown) [P27]
NIH-TrkA % Protection ([1]; agent 10 μM + 10 pM NT-3): 4 ± 1%
NIH-TrkA % Protection ([1]; agent 10 μM alone): 5 ± 2%
NIH-TrkC % Protection ([2]; agent 10 μM + 10 pM NT-3): 62 ± 6%
NIH-TrkC % Protection ([2]; agent 10 μM alone): 13 ± 3%
NIH wt % Protection ([3]; agent 10 μM + 10 pM NT-3): 5 ± 4%
NIH wt % Protection ([3]; agent 10 μM alone): −2 ± 4%

CC(O)[C@@H]1NC(=O)c2cc([N+](=O)[O-])cc(I)c2NCCC(C(N)=O)NC(=O)CNC1=O (stereo partly shown) [P42]
NIH-TrkA % Protection ([1]; agent 10 μM + 10 pM NGF): 9 ± 4%
NIH-TrkA % Protection ([1]; agent 10 μM + 1 nM NGF): 68% and 68 ± 5%
NIH-TrkA % Protection ([1]; agent 10 μM alone): 5 ± 2%
NIH wt % Protection ([3]; agent 10 μM alone): 0 ± 3%

NC(=O)C[C@@H]1NC(=O)[C@H](CCC(=O)O)NC(=O)c2cc([N+](=O)[O-])cc(I)c2NCCC(C(N)=O)NC1=O (stereo partly shown) [P43]
NIH-TrkA % Protection ([1]; agent 10 μM + 10 pM NGF): 12 ± 3%
NIH-TrkA % Protection ([1]; agent 10 μM + 1 nM NGF): 55% and 55 ± 7%
NIH-TrkA % Protection ([1]; agent 10 μM alone): 4 ± 3%
NIH wt % Protection ([3]; agent 10 μM alone): 2 ± 4%

NT-3: Neurotrophin-3, prefers binding to TrkC receptors
NIH-TrkA % Protection ([1]; 10 pM NT-3): 3 ± 2%
NIH-TrkA % Protection ([1]; 1 nM NT-3): 17 ± 3%
NIH-TrkC % Protection ([2]; 10 pM NT-3): 29±1%
NIH-TrkC % Protection ([2]; 1 nM NT-3): 100 ± 2%
NIH wt % Protection ([3]; 10 pM NT-3): 1 ± 4%
NIH wt % Protection ([3]; 1 nM NT-3): −2 ± 5%

control-biotin (an inactive biotinylated peptide)
MCF [4]: 10 MCF

nerve growth factor (NGF) (ligand)
% Protection (MTT, rat DRG neurons), NGF 20 pM [5]: 9%
% Protection (MTT, rat DRG neurons), NGF 500 pM [5]: 68%
ChAT Activity (rat septal neurons), 10 pM NGF (pmol Ach/min/well) [5]: 0.42
ChAT Activity (rat septal neurons), 400 pM NGF (pmol Ach/min/well) [5]: 0.72
Optical Density (MTT survival, rat DRG neurons), NGF 20 pM [5]: 316 OD
Optical Density (MTT survival, rat DRG neurons), NGF 500 pM [5]: 0.535 OD
Optical Density (MTT survival, rat DRG neurons), NGF 1 nM [5]: 823 OD
% Protection (MTT, NIH-TrkC), 10 pM NGF [6]: 2%
% Protection (MTT, NIH-TrkC), 1 nM NGF [6]: 5%

Glu-Lys-Cys (also: further groups not given here) [C59 (EKCys), inactive analog of D3]
ChAT Fold Increase, 20 µM C59 control [7]: 1 fold
